Experimental data published in US20240336566A1, “CRYSTALLINE FORMS OF A COMPOUND FOR THE TARGETED DEGRADATION OF THE ANDROGEN RECEPTOR” (Arvinas Operations, Inc., priority 2023, published 2024).

How the values were obtained:
Assay type in all cases: physicochemical
[1] = 7-day stability assessment (appearance, HPLC, XRPD); settings: for Reported Purity / Total impurities: HPLC; for purity retained after stability storage (HPLC): after 7 days at 40° C./75% RH (open vial), 80° C. (closed vial), ambient light (closed vial)
Description: The material was gently ground to release any agglomerates and loaded onto a multi-well plate with Kapton or Mylar polymer film to support the sample. […] Data were visualized and images generated using the HighScore Plus 4.7 desktop application (PANalytical, 2θ17).
They all remained white or off-white solids. • XRPD analysis determined the patterns were retained.

[2] = Thermodynamic solubility determination in buffers (HPLC); settings: for 0 Hr Solubility / 4 Hr Solubility / 24 Hr Solubility: 25° C.
Text: No clear solubility advantage of the salts was noted over Compound A free base.

[3] = Primary salt screen: XRPD post temperature cycling/evaporation, post drying and post storage at 40° C./75% RH; settings: post drying and 40° C./75% RH
Description: • 30 mg samples of Compound A were weighed out into 2 mL screw cap sample vials for 96 experiments. To these, 200 μL of the appropriate solvent system was added to dissolve the material or form a slurry. See Table 16 for the solvent systems selected for the primary salt screen.
• 1.05 eq. of solid counterions were weighed into six separate vials each and 1 molar stock solutions were prepared for liquid counterions in 5 mL of THF. See Table 17 for selected counterions and mass/volume needed for 1.05 eq. additions. • 100 μL of the appropriate solvent was added to the solid counterions.
The solution/slurry of counterion was added to the solution/slurry of the free base material.
• The samples were placed in an incubator shaker to temperature cycle between ambient and 40° C. over 4 hour cycles. • After ca. 72 hours of temperature cycling, observations were noted, see Table 19.
• Where slurries were obtained, the solids were isolated via centrifugation. Solids and gels were analyzed by XRPD.
Any samples that were clear solutions after temperature cycling were left to evaporate at ambient conditions. See Table 20 for observations made after evaporation. Solids obtained through evaporation were analyzed by XRPD.
• The samples obtained from temperature cycling were dried under vacuum at 40° C. for ca. 20 hours while the samples obtained from evaporation were dried under vacuum at 40° C. for ca. 4 hours. […]

[4] = Co-crystal screen: XRPD post temperature cycling and post storage at 40° C./75% RH;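 as to XRPD results, primary co-crystal screen post temperature cycling: value is the Compound A free base XRPD pattern number and 9 means a potential new one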; settings: Compound A + 1.05 eq. co-former (= label)
[5] = Primary crystallization screen: XRPD before and after drying at 40° C.; settings: dried at 40° C. for approximately 18 h
Description: • 34×40 mg of Compound A was weighed into vials before the selected solvents were added to prepare slurries, where possible. See Table 29 for a list of solvent systems used and the volume of solvent used. • Stirrer bars were added to the vials, before the vials were sealed and temperature cycled with stirring between 5° C. and 40° C. The heating rate was 0.1° C./min and the samples were held at 5° C. and 40° C. for 2 hours. • After temperature cycling for 4 days, observations were made (see Table 29). Slurries were centrifuge filtered and the solids were analyzed by XRPD • The solids were dried at 40° C. for approximately 18 h before being re-analyzed by XRPD. • Saturated solutions were then split into 3 vials for the following experiments • Evaporation at ambient temperature • Cooling (5° C.). • Where no solids were obtained after 72 hours, the samples were moved to the freezer at −20° C. for further cooling. • Where no solids were obtained from further cooling, the samples were allowed to evaporate at ambient temperature. • Anti-solvent addition at ambient temperature. • Where no solids were obtained after 72 hours the samples were moved to the freezer at −20° C. to encourage crystallization. • Where no solids were obtained from cooling, the samples were allowed to evaporate at ambient temperature.

[6] = input material before storage (baseline of the stability assessment)
[7] = Buffer pH 1.2, cf concentration of free base, listed as Compound A Besylate
[8] = Buffer pH 3.0, LOQ 0.00025 mg/mL
[9] = Buffer pH 4.0, LOQ 0.00025 mg/mL
[10] = Buffer pH 1.2, cf concentration of free base, listed as Compound A Tosylate
[11] = buffer, 25 °C, pH 3, aqueous buffer, thermodynamic from solid, Buffer pH 3.0, LOQ 0.00025 mg/mL

Question: For `COc1cc(O[C@H]2C(C)(C)[C@H](NC(=O)c3ccc(N4CCC(CN5CCN(c6ccc(C(=O)N[C@H]7CCC(=O)NC7=O)c(F)c6)CC5)CC4)cc3)C2(C)C)ccc1C#N` [besylate Pattern 1], which “Reported Purity” value ([1]; after 7 days at 40° C./75% RH) is on record?
Answer: 97.31 Area %

Question: And the Total impurities ([1]; after 7 days at 40° C./75% RH)?
Answer: 2.69 Area %

Question: What about the “Reported Purity” value ([1]; after 7 days at 80° C.) of the same molecule?
Answer: 97.56 Area %

Question: What about the Total impurities ([1]; after 7 days at 80° C.) of the same molecule?
Answer: 2.44 Area %

Question: What about the “Reported Purity” value ([1]; after 7 days at ambient) of the same molecule?
Answer: 97.17 Area %

Question: And the Total impurities ([1]; after 7 days at ambient)?
Answer: 2.83 Area %

Question: What about the “Reported Purity” value [1, 6] of the same molecule?
Answer: 97.33 Area %

Question: What about the Total impurities [1, 6] of the same molecule?
Answer: 2.67 Area %

Question: What about the “purity retained after stability storage (HPLC)” value [1] of the same molecule?
Answer: > 97 % relative area

Question: And the “0 Hr Solubility” value [2, 7]?
Answer: 13.3 µg/mL

Question: What about the “4 Hr Solubility” value [2, 7] of the same molecule?
Answer: 7.3 µg/mL

Question: And the “24 Hr Solubility” value [2, 7]?
Answer: 9.3 µg/mL

Question: And the “0 Hr Solubility” value [2, 8]?
Answer: <0.25 µg/mL

Question: What about the “4 Hr Solubility” value [2, 8] of the same molecule?
Answer: <0.25 µg/mL

Question: And the “24 Hr Solubility” value [2, 8]?
Answer: <0.25 µg/mL

Question: What about the “0 Hr Solubility” value [2, 9] of the same molecule?
Answer: <0.25 µg/mL

Question: What about the “4 Hr Solubility” value [2, 9] of the same molecule?
Answer: <0.25 µg/mL

Question: What about the “24 Hr Solubility” value ([2]; Buffer pH 4.0, LOQ 0.00025 mg/mL, listed as Compound A Besylate) of the same molecule?
Answer: < 0.25 µg/mL

Question: And the “assessment of salt form in the primary salt screen” value [3]?
Answer: stable hydrates

Question: Which “XRPD results, primary co-crystal screen post storage at 40° C./75% RH” value (shortened to “XRPD results … at 40° C./75% RH”) ([4]; 1,4-Dioxane) does the source give for `N[C@@H](Cc1ccccc1)C(=O)O` [L-Phenylalanine] here?
Answer: 4

Question: And the “XRPD results, primary co-crystal screen post temperature cycling” value ([4]; 1,4-Dioxane)?
Answer: 9

Question: For `COc1cc(O[C@H]2C(C)(C)[C@H](NC(=O)c3ccc(N4CCC(CN5CCN(c6ccc(C(=O)N[C@H]7CCC(=O)NC7=O)c(F)c6)CC5)CC4)cc3)C2(C)C)ccc1C#N` [tosylate Pattern 1], which HPLC purity ([1]; 7 days at 40° C./75% RH (open vial)) is on record?
Answer: 97.30 % relative area

Question: And the “Reported Purity” value ([1]; after 7 days at 80° C.)?
Answer: 96.76 Area %

Question: And the Total impurities ([1]; after 7 days at 80° C.)?
Answer: 3.24 Area %

Question: And the “Reported Purity” value ([1]; after 7 days at ambient)?
Answer: 97.09 Area %

Question: What about the Total impurities ([1]; after 7 days at ambient) of the same molecule?
Answer: 2.91 Area %

Question: What about the “Total impurities (HPLC)” value ([1]; after 7 days at 40° C./75% RH) of the same molecule?
Answer: 2.70 Rel. Area %

Question: What about the “purity retained after stability storage (HPLC)” value [1] of the same molecule?
Answer: > 96 % relative area

Question: What about the “XRPD pattern after stability storage” value ([1]; after 7 days at each stability condition) of the same molecule?
Answer: gained an additional peak

Question: And the “Total impurities (HPLC)” value ([1]; before stability testing)?
Answer: 2.56 Rel. Area %

Question: What about the HPLC purity ([1]; before stability testing (condition N/A)) of the same molecule?
Answer: 97.44 % relative area

Question: What about the “0 Hr Solubility” value [2, 10] of the same molecule?
Answer: 12.2 µg/mL

Question: And the “4 Hr Solubility” value [2, 10]?
Answer: 15.4 µg/mL

Question: And the “24 Hr Solubility” value [2, 10]?
Answer: 6.3 µg/mL

Question: What about the “0 Hr Solubility” value [2, 9] of the same molecule?
Answer: <0.25 µg/mL

Question: And the “4 Hr Solubility” value [2, 9]?
Answer: <0.25 µg/mL

Question: And the “24 Hr Solubility” value ([2]; Buffer pH 4.0, LOQ 0.00025 mg/mL, listed as Compound A Tosylate)?
Answer: <0.25 µg/mL

Question: What about the solubility at 0 h [2, 11] of the same molecule?
Answer: < 0.25 µg/mL

Question: What about the solubility at 4 h [2, 11] of the same molecule?
Answer: < 0.25 µg/mL

Question: And the solubility at 24 h [2, 11]?
Answer: < 0.25 µg/mL

Question: What about the “assessment of salt form in the primary salt screen” value [3] of the same molecule?
Answer: stable hydrates

Question: With `N[C@@H](Cc1c[nH]cn1)C(=O)O` [L-Histidine] as the molecule, how does the “XRPD results … at 40° C./75% RH” value ([4]; 1,4-Dioxane) read?
Answer: 4

Question: What about the “XRPD results, primary co-crystal screen post temperature cycling” value ([4]; 1,4-Dioxane) of the same molecule?
Answer: 9

Question: And the “XRPD results … at 40° C./75% RH” value ([4]; DCM:Methanol (50:50 % v/v))?
Answer: 2

Question: What about the “XRPD results, primary co-crystal screen post temperature cycling” value ([4]; DCM:Methanol (50:50 % v/v)) of the same molecule?
Answer: 2

Question: What about the “XRPD results … at 40° C./75% RH” value ([4]; THF) of the same molecule?
Answer: 1

Question: What about the “XRPD results, primary co-crystal screen post temperature cycling” value ([4]; THF) of the same molecule?
Answer: 1

Question: With `COc1cc(O[C@H]2C(C)(C)[C@H](NC(=O)c3ccc(N4CCC(CN5CCN(c6ccc(C(=O)N[C@H]7CCC(=O)NC7=O)c(F)c6)CC5)CC4)cc3)C2(C)C)ccc1C#N` [free base Pattern 5] as the molecule, how does the “XRPD form upon drying” value [5] read?
Answer: converted to Pattern 8

Question: With `N[C@@H](Cc1ccc(O)cc1)C(=O)O` [L-Tyrosine] as the molecule, how does the “XRPD results … at 40° C./75% RH” value ([4]; 1,4-Dioxane) read?
Answer: 4

Question: What about the “XRPD results, primary co-crystal screen post temperature cycling” value ([4]; 1,4-Dioxane) of the same molecule?
Answer: 9

Question: What about the “XRPD results … at 40° C./75% RH” value ([4]; DCM:Methanol (50:50 % v/v)) of the same molecule?
Answer: 2

Question: And the “XRPD results, primary co-crystal screen post temperature cycling” value ([4]; DCM:Methanol (50:50 % v/v))?
Answer: 2

Question: Which results are given for `COC(=O)c1ccc(O)cc1` [Methylparaben]?
Answer: XRPD results, primary co-crystal screen post storage at 40° C./75% RH ([4]; DCM:Methanol (50:50 % v/v)): 1; XRPD results, primary co-crystal screen post temperature cycling ([4]; DCM:Methanol (50:50 % v/v)): 1; XRPD results, primary co-crystal screen post storage at 40° C./75% RH ([4]; THF): 1; XRPD results, primary co-crystal screen post temperature cycling ([4]; THF): 1
